Data: paper PMC11574045, “A cofactor-induced repressive type of transcription factor condensation can be induced by synthetic peptides to suppress tumorigenesis” (The EMBO Journal, 2024)
“And” between values parts separate entries of the source, which are not always exact repeats. Equal values may be shown once. Ends that are not written are not given here.

How the values were obtained:
MNU-induced GC tumors = test: MNU-induced gastric cancer mouse model; assay type: in vivo; set-up: Tumor area, GLUP+ / Tumor area, GLUP++: unit not given here
Method: For the model involving N-nitroso-N-methylurea (MNU)-induced GC, 8-week-old C57BL/6 mice received 3 cycles of MNU (TRC, Toronto, Canada) in drinking water. For each cycle, drinking water containing 240 μg/ml MNU was served to the mice for 1 week, and then normal drinking water the next week. After 19 weeks of MNU administration, mice were randomized to receive GLUP via intraperitoneal injection (i.p.) biweekly for the following 5 weeks (n = 8/group). After 24 weeks, mice were sacrificed for subsequent analysis. The tumor volume per stomach was measured.

[1] = test system: GFP-TEAD4 condensates in HEK293FT cells; test: GFP-TEAD4 condensate imaging, condensed fraction in cells; assay type: cell-based; details: HEK293FT, GLUP 10 μg/ml (5 μM) 12 h; individual cells, n = 9
[2] = test system: GFP-TEAD4 condensates in HEK293FT cells; test: FRAP of TEAD4 condensates in live cells; assay type: cell-based; details: GLUP-treated HEK293FT cells
Method: For FRAP analysis, cells were seeded at a confluency of ~30% on a 35-mm glass-bottomed dish (Cellvis D35C4-20-1-N). Live cell imaging was carried out using a Leica SP8 confocal microscope (Leica, Germany) with a 63× oil immersion objective lens. A defined region with a diameter of ~1 μm was photobleached by the equipped laser at ~90% power intensity. Fluorescence intensities of the region were recorded by carrying out time-lapse live imaging with a 1.29 s interval and further quantified using Fiji ImageJ software.

Pharmacokinetics assay = assay type: in vivo, mouse; details: 10 mg/kg
Method: Blood samples were obtained at 0, 0.17, 0.33, 0.5, 0.67, 0.83, 1, 2, 4, 6, 8, 10, 12, and 24 h after intraperitoneally injected administration of FAM-GLUP. These blood samples were then allowed to coagulate at room temperature for 4 h, and then were subjected to centrifugation at 3000 × g at 4 °C for 10 min in order to separate the plasma. The plasma samples were analyzed using an Ultra Performance Liquid Chromatography system (UPLC, Waters, Milford, MA). Pharmacokinetic parameters were calculated using Phoenix^TM WinNonlin® software (version 6.1.0.173; Pharsight Corp., Mountain View, CA).

TEAD4 [3] = target: T1, TEAD4 (Homo sapiens, UniProt Q15561); test: In vitro DSS-cross-linking assay of TEAD4 oligomerization; assay type: biochemical; details: 5 µM protein, 30 min 30 °C, DSS 3 mM, SDS-PAGE
T1 construct: His; made in house; host or cells: Escherichia coli BL21(DE3)
T1 sequence (Q15561 whole entry): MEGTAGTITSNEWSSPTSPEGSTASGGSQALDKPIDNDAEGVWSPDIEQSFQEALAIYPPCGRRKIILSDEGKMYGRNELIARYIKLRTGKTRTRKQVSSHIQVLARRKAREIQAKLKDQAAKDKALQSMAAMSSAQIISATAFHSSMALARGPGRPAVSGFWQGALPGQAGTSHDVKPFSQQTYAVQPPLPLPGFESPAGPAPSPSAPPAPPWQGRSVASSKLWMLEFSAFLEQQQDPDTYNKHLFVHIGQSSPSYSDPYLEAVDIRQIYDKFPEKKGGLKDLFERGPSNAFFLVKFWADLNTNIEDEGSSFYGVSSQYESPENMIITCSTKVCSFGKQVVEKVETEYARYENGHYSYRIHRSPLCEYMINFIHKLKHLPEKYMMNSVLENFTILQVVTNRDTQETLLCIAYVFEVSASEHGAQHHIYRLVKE
Method: The deployed cross-linking reaction system contained 20 mM HEPES pH 7.5, 250 mM NaCl and 5 µM tested proteins with a total volume of 20 µl. This system was allowed to incubate for 30 min at 30 °C, and then combined with disuccinimidyl suberate (DSS) at a final concentration of 3 mM, and the mixtures were further incubated at 4 °C for 20 min. The cross-linking reaction was stopped by adding 1 M Tris HCl (pH 8.5) to the incubated mixture at 4 °C, and allowing the mixture to sit for 10 min, and then boiling it in 1×SDS loading buffer to provide samples for SDS-PAGE analysis.

HGC-27 cells = test: Live-cell imaging of FAM-GLUP cellular entry; assay type: cell-based, human; details: FAM-GLUP 10 μg/ml (5 μM), HGC-27 live cells
Method: (§1) To confirm cellular entry of GLUP, we performed immunostaining of live cells treated with a fluorescein-labeled version of the peptide (FAM-GLUP). […] We then examined the potential effect of GLUP on TEAD4-mediated perturbation of DNA conformation.
(A) Representative live-cell images of HGC-27 cells treated with FAM (a fluorescent moiety)-labeled GLUP for indicated periods of time. FAM-GLUP: 10 μg/ml (5 μM). Scale bar, 10 μm. (B) Representative DAPI staining images of DNA showing its organization and appearance in the presence or absence of TEAD4 and GLUP as indicated. GLUP: 1 μg/ml (0.5 μM). Scale bar, 100 nm. (C) Representative N-SIM images of chromatin in GLUP-treated cells stained with DAPI. GLUP, 1 μg/ml (0.5 μM). Scale bar, 100 nm. (D) Representative images showing co-localization of GFP-TEAD4 with H3K27me3 in HEK293FT cells treated with GLUP together with 1,6-Hex. Scale bar, 1 μm. (E) Average enrichment profiles of H3K27me3 in GLUP-treated WT or TEAD4KO HGC-27 cells, stratified by gene length (three biological replicates, n = 3). Normalization of coverage using RPKM was performed over the genes and flanking region 1 kb in length. GLUP: 10 μg/ml (5 μM). […] The interval scale was 10 in both cases. See also Appendix Fig. S6. Source data are available online for this figure.

TEAD4 [4] = target: T1, TEAD4; test: Dynamic light scattering (DLS) of TEAD4 oligomerization; assay type: biochemical; details: after 10–20 min incubation with glup (10 μg/ml); TEAD4:glup molar ratio 10:1, 4 °C; DLS at 25 °C
Method: In the case of glup, the mixtures were incubated at 4 °C for various periods of time as indicated in related figures. And then the mixtures were subjected to dynamic light scattering analysis at 25 °C. Scattered light was measured at a 90° angle at a wavelength of 658 nm.

[5] = Toxicity analysis (blood testing, blood biochemistry, pathology); assay type: in vivo, mouse; details: BALB/c mice, GLUP 1 or 10 mg/kg i.p. every 2 days, 14 days
Method: Healthy BALB/c mice (~8 weeks, n = 5) were injected intraperitoneally with GLUP (1, 10 mg/kg, respectively, every 2 days), and mice of the control group were injected with saline (10 ml/kg, n = 5). The mice were continuously observed for 14 days after the administration and then sacrificed for routine blood testing (of white blood cells, red blood cells, platelets, lymphocytes, monocytes, and neutrophils), examination of the blood biochemistry (hemoglobin, albumin, glucose, creatinine, urea, AST, and ALT) and pathology examination.

chromatin = test: N-SIM imaging of DAPI-labeled chromatin in cells; assay type: cell-based; details: GLUP 1 μg/ml (0.5 μM)
Source text: Next, we used structure illumination microscopy (N-SIM) to examine deformation of DAPI-labeled chromatin in cells overexpressing VGLL4. […] To further address this issue, we performed colloidal gold staining using TEAD4 antibody to observe the status of chromatin around TEAD4.
as §1

Substance: RRVCVHFHFSLSLR-NH2 (C-terminus assumed) [glup]
- Average tumor area vs control (MNU-induced GC tumors; MNU-induced GC mice, 5-week GLUP treatment): much smaller than that in control mice
- Gastric mucosa histology (MNU-induced GC tumors; MNU-induced GC mice, high dose GLUP 5 mg/kg): almost normal gastric mucosa
- Tumor area, GLUP+ (MNU-induced GC tumors; MNU-induced GC, C57BL/6 mice, 1 mg/kg GLUP biweekly for 5 weeks, individual mice (source data Fig 7B), 1 mg/kg): 28.125 and 40.5 and 20.5 and 4.5 and 6.5 and 16.2
- Tumor area, GLUP++ (MNU-induced GC tumors; MNU-induced GC, C57BL/6 mice, 5 mg/kg GLUP biweekly for 5 weeks, individual mice (source data Fig 7B), 5 mg/kg): 4.5 and 2.5315 and 0.5 and 0
- Condensed fraction of GFP-TEAD4 [1]: 25.1852% and 50.001% and 27.6986% and 34.6228% and 22.4908% and 43.1106% and 47.5218% and 38.4928% and 44.4447%
- mobile fraction (FRAP) [2]: about 62%
- half-life (Pharmacokinetics assay; mouse peripheral blood/plasma, FAM-GLUP intraperitoneal, sampling 0–24 h, UPLC, WinNonlin): over 4 h
- plasma levels of GLUP, max (Pharmacokinetics assay; mouse, as read by Referee #1 from Supp. Fig. 6K of the submitted version): around 0.15 µg/ml
- TEAD4 oligomerization in DSS cross-linking (TEAD4 [3]): induced TEAD4 oligomerization in a concentration-dependent manner
- TEAD4 oligomerization in DSS cross-linking (TEAD4 [3]; listed as GLUP): strongly induced TEAD4 oligomerization
- Cellular localisation (HGC-27 cells; 30 min): in the cytoplasm but outside of the nucleus
- Cellular localisation (HGC-27 cells; 80 min): throughout in the cell including the nucleus
- TEAD4 oligomerization by DLS (TEAD4 [4]): formed dimers or oligomers of high molecular weight
- Blood findings upon GLUP treatment [5]: a range of blood biochemical abnormalities e.g., in numbers of platelets and neutrophils
- Effect on chromatin distribution (chromatin): substantially disturbed chromatin distribution and organization
